In series [1] the target is T1, Neuropeptide Y receptor type 5 (Homo sapiens, UniProt Q15761).
T1 sequence (Q15761 whole entry): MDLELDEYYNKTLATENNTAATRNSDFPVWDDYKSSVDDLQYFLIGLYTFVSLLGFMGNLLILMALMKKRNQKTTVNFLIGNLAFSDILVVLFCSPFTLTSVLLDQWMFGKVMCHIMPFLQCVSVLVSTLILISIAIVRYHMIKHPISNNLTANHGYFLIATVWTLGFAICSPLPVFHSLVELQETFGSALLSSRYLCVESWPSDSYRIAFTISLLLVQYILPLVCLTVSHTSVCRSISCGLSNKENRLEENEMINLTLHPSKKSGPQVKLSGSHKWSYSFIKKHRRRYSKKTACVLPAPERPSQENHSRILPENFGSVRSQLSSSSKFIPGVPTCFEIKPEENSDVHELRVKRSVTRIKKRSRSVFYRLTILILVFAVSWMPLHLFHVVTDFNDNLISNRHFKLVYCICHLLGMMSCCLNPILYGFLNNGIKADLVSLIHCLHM
Kind of series: Displacement of [125I]PYY from human recombinant NPY Y5 receptor expressed in mouse LMtk cells. The class given is cell-based. Background: Displacement assays read how much labelled ligand stays bound in the presence of the test substance.

Series [2] can be described thus: Lipophilicity, Log D at pH 7.4. The note with it: buffer.
In another series the test system is Rattus norvegicus. Kind of series: Plasma concentration in rat at 3 mg/kg, iv. Also: time not given here. The class given is ADME, organism-based. Also noted: dose 3 mg/kg, route intravenous. The note with it: in vivo.
A further series relates to Brain. Put plainly: Drug level in rat brain at 3 mg/kg, iv. As to Drug uptake: time not given here. Type of series: ADME, organism-based. Also noted: dose 3 mg/kg, route intravenous. Particulars: in vivo.
Another series relates to Cerebrospinal fluid. Put plainly: Drug level in rat cerebrospinal fluid at 3 mg/kg, iv. Also: time not given here. Type of series: ADME, organism-based. Also noted: dose 3 mg/kg, route intravenous. The note with it: in vivo, read-out: Drug uptake.
Series [3] can be described thus: Ratio of drug level in rat brain to plasma at 3 mg/kg, iv. Type of series: ADME, organism-based. Also noted: dose 3 mg/kg, route intravenous.
Series [4] can be described thus: Ratio of drug level in cerebrospinal fluid to brain of rat at 3 mg/kg, iv. Type of series: ADME, organism-based, CSF/Brain. Also noted: dose 3 mg/kg, route intravenous. The note with it: in vivo.
Series [5] concerns LLC-PK1. Kind of series: Efflux ratio of permeability from […] side in human MDR1 gene transfected pig LLC-PK1 cells. The class given is ADME, cell-based, Sus scrofa.
Series [6] concerns LLC-PK1. Kind of series: Efflux ratio of permeability from […] side in mouse mdr1a gene transfected pig LLC-PK1 cells. The class given is ADME, cell-based, Sus scrofa.
For series [7], the target named is T2, Neuropeptide Y receptor type 1 (Homo sapiens, UniProt P25929).
T2 sequence (P25929 whole entry): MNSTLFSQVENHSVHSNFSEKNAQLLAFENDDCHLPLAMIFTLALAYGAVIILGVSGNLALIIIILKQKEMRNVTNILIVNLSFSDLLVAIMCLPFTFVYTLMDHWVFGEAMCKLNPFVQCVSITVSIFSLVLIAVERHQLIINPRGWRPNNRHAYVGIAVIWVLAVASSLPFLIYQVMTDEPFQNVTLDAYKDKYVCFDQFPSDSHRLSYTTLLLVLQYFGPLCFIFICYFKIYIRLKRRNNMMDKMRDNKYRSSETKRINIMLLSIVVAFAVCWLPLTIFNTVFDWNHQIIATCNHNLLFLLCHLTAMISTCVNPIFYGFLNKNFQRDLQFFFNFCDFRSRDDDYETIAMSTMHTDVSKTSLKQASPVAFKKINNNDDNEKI
Put plainly: Inhibition of human NPY Y1 receptor.

The target of series [8] is T3, Neuropeptide Y receptor type 2 (Homo sapiens, UniProt P49146).
T3 sequence (P49146 whole entry): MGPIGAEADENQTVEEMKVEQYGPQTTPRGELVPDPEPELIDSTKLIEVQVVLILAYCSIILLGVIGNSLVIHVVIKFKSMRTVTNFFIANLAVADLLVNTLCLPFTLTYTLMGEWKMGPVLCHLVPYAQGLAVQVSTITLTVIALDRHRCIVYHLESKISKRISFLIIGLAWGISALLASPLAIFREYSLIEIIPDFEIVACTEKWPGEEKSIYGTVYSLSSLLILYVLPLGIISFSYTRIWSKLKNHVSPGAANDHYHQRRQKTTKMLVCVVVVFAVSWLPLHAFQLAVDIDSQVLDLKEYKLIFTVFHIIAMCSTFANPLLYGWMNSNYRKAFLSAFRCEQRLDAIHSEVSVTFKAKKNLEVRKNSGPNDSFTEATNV
Put plainly: Inhibition of human NPY Y2 receptor.

Series [9] addresses Neuropeptide Y receptor type 4 (Homo sapiens, UniProt P50391). Put plainly: Inhibition of human NPY Y4 receptor.

Chain of Neuropeptide Y receptor type 4 (P50391 whole entry): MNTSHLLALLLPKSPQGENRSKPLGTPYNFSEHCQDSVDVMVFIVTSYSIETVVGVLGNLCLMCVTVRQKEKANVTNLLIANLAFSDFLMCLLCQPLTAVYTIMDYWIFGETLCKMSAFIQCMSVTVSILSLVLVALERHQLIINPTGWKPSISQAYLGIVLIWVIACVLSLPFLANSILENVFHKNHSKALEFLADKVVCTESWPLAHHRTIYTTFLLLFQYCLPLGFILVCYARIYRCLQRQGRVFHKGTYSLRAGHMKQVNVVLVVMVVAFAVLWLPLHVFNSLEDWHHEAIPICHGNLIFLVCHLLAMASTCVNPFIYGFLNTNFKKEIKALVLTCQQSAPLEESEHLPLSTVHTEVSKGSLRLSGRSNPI

What is called IC50 is the concentration at which inhibition is half-maximal. The term logD denotes the decadic logarithm of the distribution of all forms, ionised or not, between an organic phase and buffer at a given pH. A high value points to higher lipophilicity. What is called Kp is tissue or fluid exposure divided by exposure in the circulation. For `O=C1O[C@]2(CC[C@H](C(=O)Nc3ncc(-c4cccc(OCF)c4)cn3)CC2)c2ccncc21`, the IC50 in [1] was 1.8 nM. The same compound showed a log distribution coefficient (logD) in [2] of 2.71. Further, the concentration stood at 1500 nM in the series with Rattus norvegicus, 150 nM in the series with Brain (read-out: Drug uptake) and 64 nM with Cerebrospinal fluid. Also, the Kp in series [3] is 0.11. Also, the values for the Ratio (in series [4]; with LLC-PK1 [5]; in the series with LLC-PK1 [6]) were 0.42, 1.52 and 9.51, respectively.

`O=C1O[C@]2(CC[C@H](C(=O)Nc3ncc(-c4ccc(F)cc4)cn3)CC2)c2ccncc21`: the IC50 in series [1] was 2.2 nM.

In the case of `O=C1O[C@]2(CC[C@H](C(=O)Nc3ncc(-c4ccccc4)cn3)CC2)c2cnccc21`, in series [1], the IC50 is 1.8 nM. For the same compound, the pH-dependent lipophilicity (logD) in series [2] came out at 2.65.

Take `O=C1O[C@]2(CC[C@H](C(=O)Nc3ncc(-c4ccccc4OCF)cn3)CC2)c2cccnc21`: the IC50 in series [1] was 4.5 nM.

As to `O=C1O[C@]2(CC[C@H](C(=O)Nc3ncc(-c4ccccc4)cn3)CC2)c2cccnc21`, the concentration for half-maximal inhibition (IC50) in series [1] worked out at 2.1 nM. In series [2], this compound came in with a logD of 2.32.

Consider `O=C1O[C@]2(CC[C@H](C(=O)Nc3ncc(-c4cccc(CF)c4)cn3)CC2)c2cnccc21`, for which, in [1], the IC50 amounted to 1.8 nM. For the same compound, the logD in series [2] stood at 2.65. Besides, the results for the concentration in the series on Rattus norvegicus, in the series with Brain (read-out: Drug uptake) and in the series with Cerebrospinal fluid were 1220 nM, 370 nM and 79 nM, respectively. The Kp in series [3] worked out at 0.3. Also, the Ratio in series [4] was found to be 0.22; in the series with LLC-PK1 [5] it was 1.69; with LLC-PK1 [6], 7.9.

For `O=C1O[C@]2(CC[C@H](C(=O)Nc3ncc(-c4ccccc4)cn3)CC2)c2ncccc21`, the IC50 in series [1] was determined as 2.9 nM. Further, the logD in series [2] was found to be 2.71.

As for `O=C1O[C@]2(CC[C@H](C(=O)Nc3ncc(-c4ccccc4)cn3)CC2)c2ccccc21`, in series [1], the IC50 came out at 0.64 nM. Also, the logD in [2] is 3.73.

Consider `O=C1O[C@]2(CC[C@H](C(=O)Nc3ncc(-c4cccc(OCF)c4)cn3)CC2)c2cnccc21`, for which the IC50 in series [1] is 1.9 nM. Also, in [2], the logD is 2.75. The concentration with Rattus norvegicus was 2040 nM; with Brain (read-out: Drug uptake), 740 nM; in the series on Cerebrospinal fluid, 95 nM. For the same compound, the concentration ratio (Kp) in series [3] amounted to 0.37. In addition, the results for the Ratio (in series [4]; in the series with LLC-PK1 [5]; in the series on LLC-PK1 [6]) were 0.13, 1.37 and 8.23, respectively.

On to `O=C1O[C@]2(CC[C@H](C(=O)Nc3ncc(-c4ccc(F)cc4)cn3)CC2)c2cnccc21`, for which, in series [1], the IC50 came out at 2.7 nM.

Turning to `O=C1O[C@]2(CC[C@H](C(=O)Nc3ncc(-c4ccc(F)cc4)cn3)CC2)c2cccnc21`, the IC50 in [1] worked out at 7.5 nM.

As for `O=C1O[C@]2(CC[C@H](C(=O)Nc3ncc(-c4ccccc4OCF)cn3)CC2)c2ccncc21`, the IC50 in series [1] turned out to be 2.2 nM.

As for `O=C1O[C@]2(CC[C@H](C(=O)Nc3ncc(-c4ccccc4OCF)cn3)CC2)c2cnccc21`, the IC50 in series [1] is 2.6 nM. Further, in series [2], the logD was found to be 2.71.

As for `O=C1O[C@]2(CC[C@H](C(=O)Nc3ncc(-c4ccccc4CF)cn3)CC2)c2cnccc21`, the IC50 in series [1] came to 2 nM. For the same compound, the logD in series [2] turned out to be 2.54.

`O=C1O[C@]2(CC[C@H](C(=O)Nc3ncc(-c4cccc(CF)c4)cn3)CC2)c2cccnc21`: the IC50 in series [1] was determined as 2.3 nM.

Turning to `O=C1O[C@]2(CC[C@H](C(=O)Nc3ncc(-c4cccc(OCF)c4)cn3)CC2)c2cccnc21`, in [1], the IC50 turned out to be 3.1 nM.

In the case of `O=C1O[C@]2(CC[C@H](C(=O)Nc3ncc(-c4cccc(F)c4)cn3)CC2)c2cnccc21`, the IC50 in series [1] worked out at 1.8 nM.

Turning to `O=C1O[C@]2(CC[C@H](C(=O)Nc3ncc(-c4ccccc4F)cn3)CC2)c2cccnc21`, in [1], the IC50 was 3 nM.

As to `O=C1O[C@]2(CC[C@H](C(=O)Nc3ncc(-c4cccc(F)c4)cn3)CC2)c2ccncc21`, in [1], the IC50 worked out at 1.5 nM. Besides, in series [2], the logD turned out to be 2.78. Besides, the concentration in the series on Rattus norvegicus came out at 3450 nM; in the series with Brain (read-out: Drug uptake), 1420 nM; with Cerebrospinal fluid it was 308 nM. Further, the Kp in [3] was 0.41. The Ratio is 0.22 in series [4], 1.41 in the series on LLC-PK1 [5] and 7.78 in the series on LLC-PK1 [6].

Take `O=C1O[C@]2(CC[C@H](C(=O)Nc3ncc(-c4ccccc4)cn3)CC2)c2ccncc21`: the IC50 in series [1] came to 2 nM.

Turning to `O=C1O[C@]2(CC[C@H](C(=O)Nc3ncc(-c4cccc(F)c4)cn3)CC2)c2cccnc21`, the IC50 in series [1] was determined as 2.2 nM. The compound further came in with a logD in series [2] of 2.48.

In the case of `O=C1O[C@]2(CC[C@H](C(=O)Nc3ncc(-c4ccccc4F)cn3)CC2)c2ccncc21`, the IC50 in series [1] is 1.5 nM; in [7], greater than 10000 nM; in series [8], greater than 10000 nM; in series [9], greater than 10000 nM. In addition, in series [2], the pH-dependent lipophilicity (logD) was 2.79. The figures for the concentration with Rattus norvegicus, with Brain (read-out: Cp) and in the series on Cerebrospinal fluid were 3100 nM, 1550 nM and 288 nM, respectively. In series [3], the concentration ratio (Kp) turned out to be 0.5. The Ratio in [4] was 0.19; in the series on LLC-PK1 [5], 1.11; in the series on LLC-PK1 [6] it was 4.43.

As to `O=C1O[C@]2(CC[C@H](C(=O)Nc3ncc(-c4ccccc4F)cn3)CC2)c2cnccc21`, in [1], the IC50 was 1.8 nM. The compound further gave a logD in [2] of 2.79.

The record behind these values is ChEMBL document CHEMBL1155978, “Identification of positron emission tomography ligands for NPY Y5 receptors in the brain” (Bioorg Med Chem Lett, 2009).
